# How the values were obtained:
# [1] = tested on: mRNA transcript for the firefly (Photinus pyralis) luciferase gene; assay: Mouse in vivo evaluation of efficacy (luciferase siRNA LNP, liver luminescence); details: RDV (LNP) with Luc siRNA, tail vein, 0.1 to 0.5 mg/kg siRNA, imaged 48 hours post dose; compared with RDV containing Compound A
# Procedure: LNPs utilizing Compound 4, in the nominal compositions described immediately above, were evaluated for in vivo efficacy. The siRNA targets the mRNA transcript for the firefly (Photinus pyralis) luciferase gene (Accession #M15077). […] The in vivo luciferase model employs a transgenic mouse in which the firefly luciferase coding sequence is present in all cells. ROSA26-LoxP-Stop-LoxP-Luc (LSL-Luc) transgenic mice licensed from the Dana Farber Cancer Institute are induced to express the Luciferase gene by first removing the LSL sequence with a recombinant Ad-Cre virus (Vector Biolabs). Due to the organo-tropic nature of the virus, expression is limited to the liver when delivered via tail vein injection. Luciferase expression levels in liver are quantitated by measuring light output, using an IVIS imager (Xenogen) following administration of the luciferin substrate (Caliper Life Sciences). Pre-dose luminescence levels are measured prior to administration of the RDVs. Luciferin in PBS (15 mg/mL) is intraperitoneally (IP) injected in a volume of 150 μL. After a four minute incubation period mice are anesthetized with isoflurane and placed in the IVIS imager. The RDVs (containing siRNA) in PBS vehicle were tail vein injected n a volume of 0.2 mL. […] In vivo efficacy results are expressed as % inhibition of luminescence relative to pre-dose luminescence levels. […]
# [2] = Determination of cationic lipid levels in rat liver (LC/MS-MS); format: in vivo; details: rats dosed with RDV, 0.5 mg/kg; compared with RDV containing DLinKC2DMA (Compound 12) or MC3 (Compound 13), also 0.5 mg/kg
# Procedure: Liver tissue was weighed into 20-ml vials and homogenized in 9 v/w of water using a GenoGrinder 2000 (OPS Diagnostics, 1600 strokes/min, 5 min). A 50 μL aliquot of each tissue homogenate was mixed with 300 μL of extraction/protein precipitating solvent (50/50 acetonitrile/methanol containing 500 nM internal standard) and the plate was centrifuged to sediment precipitated protein. A volume of 200 μL of each supernatant was then transferred to separate wells of a 96-well plate and 10 μl samples were directly analyzed by LC/MS-MS.
# Standards were prepared by spiking known amounts of a methanol stock solution of compound into untreated rat liver homogenate (9 vol water/weight liver). Aliquots (50 μL) each standard/liver homogenate was mixed with 300 μL of extraction/protein precipitating solvent (50/50 acetonitrile/methanol containing 500 nM internal standard) and the plate was centrifuged to sediment precipitated protein. A volume of 200 μL of each supernatant was transferred to separate wells of a 96-well plate and 10 μl of each standard was directly analyzed by LC/MS-MS.
# Absolute quantification versus standards prepared and extracted from liver homogenate was performed using an Aria LX-2 HPLC system (Thermo Scientific) coupled to an API 4000 triple quadrupole mass spectrometer (Applied Biosystems). […]
# [3] = Rat in vivo evaluation of toxicity (serum ALT and AST); details: RDV (LNP) with ApoB siRNA, tail vein, Sprague-Dawley female rats, 24 hours after dosing; compared with RDV containing DLinKC2DMA (Compound 12)
# Procedure: (§1) Six hours post dose, food is removed from the cages. Animal necropsy is performed 24 hours after LNP dosing. Rats are anesthetized under isoflurane for 5 minutes, then maintained under anesthesia by placing them in nose cones continuing the delivery of isoflurane until ex-sanguination is completed. Blood is collected from the vena cava using a 23 gauge butterfly venipuncture set and aliquoted to serum separator vacutainers for serum chemistry analysis. Punches of the excised caudate liver lobe are taken and placed in RNALater (Ambion) for mRNA analysis. Preserved liver tissue was homogenized and total RNA isolated using a Qiagen bead mill and the Qiagen miRNA-Easy RNA isolation kit following the manufacturer's instructions. Liver ApoB mRNA levels were determined by quantitative RT-PCR. Message was amplified from purified RNA utilizing a rat ApoB commercial probe set (Applied Biosystems Cat #RN01499054_m1). The PCR reaction was performed on an ABI 7500 instrument with a 96-well Fast Block. The ApoB mRNA level is normalized to the housekeeping PPIB (NM 011149) mRNA. PPIB mRNA levels were determined by RT-PCR using a commercial probe set (Applied Biosytems Cat. No. Mm00478295_m1). Results are expressed as a ratio of ApoB mRNA/PPIB mRNA. All mRNA data is expressed relative to the PBS control dose. […]
# [4] = tested on: mRNA transcript for the ApoB gene; assay: Rat in vivo evaluation of efficacy (ApoB siRNA LNP, liver ApoB mRNA by RT-PCR); details: RDV (LNP) with ApoB siRNA, tail vein, Sprague-Dawley female rats, 24 hours after dosing; compared with RDV containing DLinKC2DMA (Compound 12)
# Procedure: as §1
compound,measurement,setting,value
"CCCCC/C=C\C/C=C\CCCCCCCCO[C@@H]1CN(C)C[C@H]1OCCCCCCCC (relative stereo) [Compound 4, trans-1-Methyl-3-[((9Z,12Z)-octadeca-9,12-dienyl)oxy]-4-octyloxy-pyrrolidine]",in vivo efficacy (% inhibition of luminescence relative to pre-dose luminescence levels),[1],Greater efficacy
same,cationic lipid levels in rat liver,[2],much lower
same,tolerability (increases in serum alanine amino transferase and aspartate amino transferase),[3],significantly improved tolerability
same,in vivo efficacy (liver ApoB mRNA/PPIB mRNA relative to PBS control),[4],Modestly decreased efficacy
